Laboratory results as given in patent US20180228823A1, “ANTI-DIABETIC EFFECTS OF GYPENOSIDE 75” (INTELLIGENT SYNTHETIC BIOLOGY CENTER, priority 2016, published 2018).

Experiments:
Type in all cases: cell-based
INS-1 cells [1] = experiment: Insulin secretion of INS-1 cells measured by ELISA; conditions: 10 μM, 2 hours
Method: In order to confirm the effect of gypenoside 75 on an increase in insulin secretion, the amount of insulin secreted after treatment with gypenoside 75 was measured. Specifically, in order to confirm the effect of gypenoside 75 on an increase in insulin secretion, INS-1 cells, which are insulin-secreting cells, were cultured in a cell incubator (37° C., 5% CO2, RPMI culture medium, 10% FBS). The cells were treated with each of 10 μM of gypenoside 75, ginsenoside F1, ginsenoside Rg3, ginsenoside Rb2, and ginsenoside Rb3 for 2 hours, and the amounts of insulin secreted after the treatments were then measured via the ELISA method.

INS-1 cells [2] = experiment: Mitochondrial membrane potential by TMRM staining and FACS in INS-1 cells; conditions: 10 μM, 2 hours, TMRM staining, FACS
Method: (§1) If mitochondrial function is impaired, it may cause diabetes mellitus by interfering with insulin signaling. Accordingly, in order to confirm the effect of gypenoside 75 on the activation of the mitochondrial function, after gypenoside 75 was treated, an increased amount of ATP and mitochondrial membrane potentials were measured. Specifically, in order to confirm the effect of gypenoside 75 on the activation of the mitochondrial function, INS-1 cells, which are insulin-secreting cells, were cultured in a cell incubator (37° C., 5% CO2, RPMI culture medium, 10% FBS). The cells were treated with 10 μM of gypenoside 75 for 2 hours, and the amount of ATP and mitochondrial membrane potentials inside the cells were then measured. To measure the amount of intracellular ATP, the INS-1 cells treated with gypenoside 75 were lysed through freezing-thawing and ultrasonication methods. The cell lysates were mixed with luciferase and luciferin to induce fluorescence. As the activation of the luciferase and fluorescence induced thereby depend on the amount of ATP, the degree of fluorescence was measured with a fluorometer to determine the amount of ATP. To measure the mitochondrial membrane potential, the INS-1 cells treated with gypenoside 75 were then stained with TMRM, and the degree of the staining of each cell was measured using a FACS instrument. As the mitochondrial membrane potential increases, the degree of staining by TMRM increases.

INS-1 cells [3] = experiment: Intracellular ATP amount by luciferase/luciferin assay in INS-1 cells; conditions: 10 μM, 2 hours, luciferase
Method: as §1

Compound | increase of the amount of insulin secreted compared to control group (DMSO) (INS-1 cells [1]) | increase of mitochondrial membrane potential compared to control group (DMSO) (INS-1 cells [2]) | increase of the amount of intracellular ATP compared to control group (DMSO) (INS-1 cells [3])
CC(C)=CCC[C@](C)(O[C@@H]1O[C@H](CO)[C@@H](O)[C@H](O)[C@H]1O)[C@H]1CC[C@]2(C)[C@@H]1[C@H](O)C[C@@H]1[C@@]3(C)CC[C@H](O)C(C)(C)[C@@H]3[C@@H](O)C[C@]12C [ginsenoside F1] | 50% | about 20% | about 40%
CC(C)=CCC[C@](C)(O[C@@H]1O[C@H](CO[C@@H]2OC[C@H](O)[C@H](O)[C@H]2O)[C@@H](O)[C@H](O)[C@H]1O)[C@H]1CC[C@]2(C)[C@@H]1[C@H](O)C[C@@H]1[C@@]3(C)CC[C@H](O[C@@H]4O[C@H](CO)[C@@H](O)[C@H](O)[C@H]4O[C@@H]4O[C@H](CO)[C@@H](O)[C@H](O)[C@H]4O)C(C)(C)[C@@H]3CC[C@]12C [ginsenoside Rb2] | 50% | about 20% | about 40%
CC(C)=CCC[C@](C)(O[C@@H]1O[C@H](CO[C@@H]2OC[C@@H](O)[C@H](O)[C@H]2O)[C@@H](O)[C@H](O)[C@H]1O)[C@H]1CC[C@]2(C)[C@@H]1[C@H](O)C[C@@H]1[C@@]3(C)CC[C@H](O[C@@H]4O[C@H](CO)[C@@H](O)[C@H](O)[C@H]4O[C@@H]4O[C@H](CO)[C@@H](O)[C@H](O)[C@H]4O)C(C)(C)[C@@H]3CC[C@]12C [ginsenoside Rb3] | 50% | about 20% | about 40%
CC(C)=CCC[C@](C)(O)[C@H]1CC[C@]2(C)[C@@H]1[C@H](O)C[C@@H]1[C@@]3(C)CC[C@H](O[C@@H]4O[C@H](CO)[C@@H](O)[C@H](O)[C@H]4O[C@@H]4O[C@H](CO)[C@@H](O)[C@H](O)[C@H]4O)C(C)(C)[C@@H]3CC[C@]12C [ginsenoside Rg3] | 50% | about 20% | about 40%
CC(C)=CCC[C@](C)(O[C@@H]1O[C@H](CO[C@@H]2O[C@H](CO)[C@@H](O)[C@H](O)[C@H]2O)[C@@H](O)[C@H](O)[C@H]1O)[C@H]1CC[C@]2(C)[C@@H]1[C@H](O)C[C@@H]1[C@@]3(C)CC[C@H](O)C(C)(C)[C@@H]3CC[C@]12C [gypenoside 75] | about 110% | about 40% | 50%
